Data reported in ChEMBL document CHEMBL1146387, “A new class of anti-MRSA and anti-VRE agents: preparation and antibacterial activities of indole-containing compounds” (2007).
≈ marks a conversion by molar mass, not a printed value.

Tests used:
Type in all cases: functional
[1] = test system: Staphylococcus aureus; experiment: Antibacterial activity against methicillin-susceptible Staphylococcus aureus 209P
[2] = test system: Enterococcus faecium; experiment: Antibacterial activity against Enterococcus faecium ATCC 19434
[3] = test system: Enterococcus faecium; experiment: Antibacterial activity against vancomycin-resistant Enterococcus faecium VRA
[4] = test system: Staphylococcus aureus; experiment: Antibacterial activity against methicillin-resistant Staphylococcus aureus MF535

| Compound | MIC [1] [µg/mL] | MIC [2] [µg/mL] | MIC [3] [µg/mL] | MIC [4] [µg/mL] |
| --- | --- | --- | --- | --- |
| COc1ccccc1C(=O)OCCc1c(C(c2cccc(Br)c2)c2c(O)c3ccccc3n(C)c2=O)[nH]c2ccccc12 (configuration not stated) | > 128 | > 128 | > 128 | > 128 |
| COc1ccccc1C(=O)OCCc1c(C(c2cccc(Br)c2)c2c(O)c3ccccc3oc2=O)[nH]c2ccccc12 (configuration not stated) | 4 (≈ 6.41 µM) | 8 (≈ 12.8 µM) | 8 (≈ 12.8 µM) | 8 (≈ 12.8 µM) |
| Cn1c(=O)c(C(c2ccc(C(F)(F)F)cc2)c2[nH]c3ccccc3c2CCNC(=O)c2ccccc2)c(O)c2ccccc21 (configuration not stated) | 8 (≈ 13.4 µM) | 16 (≈ 26.9 µM) | 16 (≈ 26.9 µM) | 16 (≈ 26.9 µM) |
| Cc1ccc(C(c2[nH]c3ccccc3c2CCOC(=O)c2ccccc2)c2c(O)c3ccccc3oc2=O)cc1 (configuration not stated) | 4 (≈ 7.55 µM) | 8 (≈ 15.1 µM) | 8 (≈ 15.1 µM) | 4 (≈ 7.55 µM) |
| O=C(OCCc1c(C(c2ccc(OC(F)(F)F)cc2)c2c(O)c3ccccc3oc2=O)[nH]c2ccccc12)c1ccccc1 (configuration not stated) | 2 (≈ 3.34 µM) | 0.5 (≈ 0.834 µM) | 0.5 (≈ 0.834 µM) | 2 (≈ 3.34 µM) |
| Cn1c(=O)c(C(c2ccc(OC(F)(F)F)cc2)c2[nH]c3ccccc3c2CCNC(=O)c2ccccc2)c(O)c2ccccc21 (configuration not stated) | 8 (≈ 13.1 µM) | > 128 | > 128 | 128 (≈ 209 µM) |
| CC(=O)NCCc1c(C(c2cccc(Br)c2)c2c(O)c3ccccc3oc2=O)[nH]c2ccccc12 (configuration not stated) | > 128 | > 128 | > 128 | > 128 |
| O=C(OCCc1c(C(c2cccc(C(F)(F)F)c2)c2c(O)c3ccccc3oc2=O)[nH]c2ccccc12)c1ccccc1 (configuration not stated) | 4 (≈ 6.85 µM) | 2 (≈ 3.43 µM) | 1 (≈ 1.71 µM) | 4 (≈ 6.85 µM) |
| O=C(OCCc1c(C(c2ccc(C(F)(F)F)cc2)c2c(O)c3ccccc3oc2=O)[nH]c2ccccc12)c1ccccc1 (configuration not stated) | 2 (≈ 3.43 µM) | 2 (≈ 3.43 µM) | 2 (≈ 3.43 µM) | 2 (≈ 3.43 µM) |
| CC(=O)OCCc1c(C(c2cccc(Br)c2)c2c(O)c3ccccc3oc2=O)[nH]c2ccccc12 (configuration not stated) | 32 (≈ 60.1 µM) | 64 (≈ 120 µM) | 32 (≈ 60.1 µM) | 32 (≈ 60.1 µM) |
| CSc1ccc(C(c2[nH]c3ccccc3c2CCOC(=O)c2ccccc2)c2c(O)c3ccccc3oc2=O)cc1 (configuration not stated) | 4 (≈ 7.12 µM) | 4 (≈ 7.12 µM) | 4 (≈ 7.12 µM) | 8 (≈ 14.2 µM) |
| O=C(OCCc1c(C(c2ccc(Br)cc2)c2c(O)c3ccccc3oc2=O)[nH]c2ccccc12)c1ccccc1 (configuration not stated) | 2 (≈ 3.36 µM) | 2 (≈ 3.36 µM) | 2 (≈ 3.36 µM) | 2 (≈ 3.36 µM) |
| CC(=O)NCCc1c(C(c2cccc(Br)c2)c2c(O)c3ccccc3n(C)c2=O)[nH]c2ccccc12 (configuration not stated) | 32 (≈ 58.8 µM) | > 128 | > 128 | 32 (≈ 58.8 µM) |
| Cn1c(=O)c(C(c2ccc(C(F)(F)F)cc2)c2[nH]c3ccccc3c2CCOC(=O)Cc2ccccc2)c(O)c2ccccc21 (configuration not stated) | 1 (≈ 1.64 µM) | > 128 | > 128 | 1 (≈ 1.64 µM) |
| CN(C(=O)NCCc1c(C(c2ccc(C(F)(F)F)cc2)c2c(O)c3ccccc3n(C)c2=O)[nH]c2ccccc12)c1ccccc1 (configuration not stated) | 1 (≈ 1.6 µM) | 2 (≈ 3.2 µM) | 1 (≈ 1.6 µM) | 1 (≈ 1.6 µM) |
| COc1ccccc1C(=O)NCCc1c(C(c2cccc(Br)c2)c2c(O)c3ccccc3oc2=O)[nH]c2ccccc12 (configuration not stated) | 8 (≈ 12.8 µM) | 32 (≈ 51.3 µM) | 32 (≈ 51.3 µM) | 16 (≈ 25.7 µM) |
| Cn1c(=O)c(C(c2ccc(C(F)(F)F)cc2)c2[nH]c3ccccc3c2CCOC(=O)C2CCCCC2)c(O)c2ccccc21 (configuration not stated) | 1 (≈ 1.66 µM) | 2 (≈ 3.32 µM) | 1 (≈ 1.66 µM) | 1 (≈ 1.66 µM) |
| O=C(OCCc1c(C(c2ccc(OC(F)(F)F)cc2)c2c(O)c3cc(Cl)ccc3oc2=O)[nH]c2ccccc12)c1ccccc1 (configuration not stated) | 2 (≈ 3.15 µM) | 1 (≈ 1.58 µM) | 1 (≈ 1.58 µM) | 2 (≈ 3.15 µM) |

| Compound | MIC [1] [µg/mL] | MIC [2] [µg/mL] | MIC [3] [µg/mL] | MIC [4] [µg/mL] |
| --- | --- | --- | --- | --- |
| COc1ccc(C(c2[nH]c3ccccc3c2CCOC(=O)c2ccccc2)c2c(O)c3ccccc3oc2=O)cc1 (configuration not stated) | 8 (≈ 14.7 µM) | 16 (≈ 29.3 µM) | 16 (≈ 29.3 µM) | 8 (≈ 14.7 µM) |
| Cn1c(=O)c(C(c2ccc(OC(F)(F)F)cc2)c2[nH]c3ccccc3c2CCOC(=O)c2ccccc2)c(O)c2ccccc21 (configuration not stated) | 0.5 (≈ 0.816 µM) | > 128 | > 128 | 1 (≈ 1.63 µM) |
| Cn1c(=O)c(C(c2ccc(OC(F)(F)F)cc2)c2[nH]c3ccccc3c2CCOC(=O)Cc2ccccc2)c(O)c2ccccc21 (configuration not stated) | 1 (≈ 1.6 µM) | 32 (≈ 51.1 µM) | 2 (≈ 3.19 µM) | 1 (≈ 1.6 µM) |
| Cn1c(=O)c(C(c2ccc(C(F)(F)F)cc2)c2[nH]c3ccccc3c2CCOC(=O)c2ccccc2)c(O)c2ccccc21 (configuration not stated) | 0.5 (≈ 0.838 µM) | 8 (≈ 13.4 µM) | 8 (≈ 13.4 µM) | 1 (≈ 1.68 µM) |
| Cn1c(=O)c(C(c2cccc(Br)c2)c2[nH]c3ccccc3c2CCOC(=O)c2ccccc2)c(O)c2ccccc21 (configuration not stated) | 1 (≈ 1.65 µM) | > 128 | > 128 | 2 (≈ 3.29 µM) |
| CC(=O)NC[C@H]1CN(c2ccc(N3CCOCC3)c(F)c2)C(=O)O1 [LINEZOLID] | 1 (≈ 2.96 µM) | 2 (≈ 5.93 µM) | 2 (≈ 5.93 µM) | 1 (≈ 2.96 µM) |
| Cn1c(=O)c(C(c2cccc(Br)c2)c2[nH]c3ccccc3c2CCOC(=O)Cc2ccccc2)c(O)c2ccccc21 (configuration not stated) | 64 (≈ 103 µM) | > 128 | > 128 | > 128 |
| Cn1c(=O)c(C(c2ccc(C(F)(F)F)cc2)c2[nH]c3ccccc3c2CCNS(=O)(=O)c2ccccc2)c(O)c2ccccc21 (configuration not stated) | 1 (≈ 1.58 µM) | 4 (≈ 6.33 µM) | 2 (≈ 3.17 µM) | 1 (≈ 1.58 µM) |
| Cc1cccc(C(c2[nH]c3ccccc3c2CCOC(=O)c2ccccc2)c2c(O)c3ccccc3oc2=O)c1 (configuration not stated) | 8 (≈ 15.1 µM) | 8 (≈ 15.1 µM) | 4 (≈ 7.55 µM) | 8 (≈ 15.1 µM) |
| COc1ccccc1C(=O)OCCc1c(C(c2cncc(Br)c2)c2c(O)c3ccccc3oc2=O)[nH]c2ccccc12 (configuration not stated) | 64 (≈ 102 µM) | 128 (≈ 205 µM) | 128 (≈ 205 µM) | 128 (≈ 205 µM) |
| Cn1c(=O)c(C(c2ccc(OC(F)(F)F)cc2)c2[nH]c3ccccc3c2CCOC(=O)C2CCCCC2)c(O)c2ccccc21 (configuration not stated) | 1 (≈ 1.62 µM) | 2 (≈ 3.23 µM) | 2 (≈ 3.23 µM) | 1 (≈ 1.62 µM) |
| CN[C@H](CC(C)C)C(=O)N[C@H]1C(=O)N[C@@H](CC(N)=O)C(=O)N[C@H]2C(=O)N[C@H]3C(=O)N[C@H](C(=O)N[C@H](C(=O)O)c4cc(O)cc(O)c4-c4cc3ccc4O)[C@H](O)c3ccc(c(Cl)c3)Oc3cc2cc(c3O[C@@H]2O[C@H](CO)[C@@H](O)[C@H](O)[C@H]2O[C@H]2C[C@](C)(N)[C@H](O)[C@H](C)O2)Oc2ccc(cc2Cl)[C@H]1O [VANCOMYCIN] |  |  | > 128 |  |
| O=C(OCCc1c(C(c2ccccc2)c2c(O)c3ccccc3oc2=O)[nH]c2ccccc12)c1ccccc1 (configuration not stated) | 8 (≈ 15.5 µM) | 16 (≈ 31 µM) | 16 (≈ 31 µM) | 8 (≈ 15.5 µM) |
| CC(=O)OCCc1c(C(c2cccc(Br)c2)c2c(O)c3ccccc3n(C)c2=O)[nH]c2ccccc12 (configuration not stated) | 16 (≈ 29.3 µM) | 64 (≈ 117 µM) | 32 (≈ 58.7 µM) | 16 (≈ 29.3 µM) |
| COc1ccccc1C(=O)OCCc1c(C(c2cccc(Br)c2)c2c(O)cc(C)oc2=O)[nH]c2ccccc12 (configuration not stated) | 32 (≈ 54.4 µM) | 64 (≈ 109 µM) | 64 (≈ 109 µM) | 64 (≈ 109 µM) |
| O=C(OCCc1c(C(c2cccc(Br)c2)c2c(O)c3ccccc3oc2=O)[nH]c2ccccc12)c1ccccc1 (configuration not stated) | 4 (≈ 6.73 µM) | 4 (≈ 6.73 µM) | 4 (≈ 6.73 µM) | 4 (≈ 6.73 µM) |
| O=C(OCCc1c(C(c2cccc(F)c2)c2c(O)c3ccccc3oc2=O)[nH]c2ccccc12)c1ccccc1 (configuration not stated) | 4 (≈ 7.5 µM) | 8 (≈ 15 µM) | 8 (≈ 15 µM) | 8 (≈ 15 µM) |
